≈ marks a conversion by molar mass, not a printed value. Like-named read-outs stand apart in the source and are kept apart here.
Legend:
HIV-1 X4LAI.04 = assay: HIV-1 inhibition in MT-4 cell cultures; format: cell-based; details: read-out: EC50 (MT-4)
[1] = Viability assay in MT-4 cell cultures; format: cell-based; details: human, MT-4 cells
M. tuberculosis MS-115 = assay: Anti-TB activity, growth in Middlebrook 7H9 medium, BACTEC MGIT960; format: cell-based; details: clinical MDR strain
M. tuberculosis H37Rv = assay: as above; format: cell-based; details: growth inhibition not less than 99%
[2] = format: in vitro ADME; details: for hydrolysis products found in human blood serum: HPLC-HRMS; for stability in human blood serum: 15 h
[3] = Chemical stability at pH 2.2, 7.4 and 9.0; format: physicochemical; details: pH 9.0 (glycine+NaOH)
[4] = growth inhibition not less than 99%
[5] = value in brackets, same MIC in μM
[6] = MT-4 cell cultures, HIV-1 X4LAI.04, 3 days, p24gag

Row | Compound | EC50 (HIV-1 X4LAI.04; Human immunodeficiency virus 1, MT4, 72 h) [nM] | CC50 [1] [nM] | MIC (99) M.tuberculosis MS-115 (M. tuberculosis MS-115; [4]) [µg/mL] | MIC (99) M.tuberculosis MS-115 (M. tuberculosis MS-115; [5]) [µM] | MIC (99) M.tuberculosis H37Rv (M. tuberculosis H37Rv) [µg/mL] | hydrolysis products found in human blood serum [2] | EC50 (HIV-1 X4LAI.04; [6]) [nM] | stability in human blood serum [2] | stability to chemical hydrolysis [3] | T1/2 in human blood serum [2] [min]
1 | Cc1cn([C@H]2C[C@H](N=[N+]=[N-])[C@@H](CO)O2)c(=O)[nH]c1=O [AZT, 3′-azido-3′-deoxythymidine, reference compound] | 30 | > 100000 | – | – | – | – | – | – | – | –
2 | CCCCCCCCCCc1cn(Cc2cn([C@H]3C[C@H](O)[C@@H](COC(=O)OC[C@H]4O[C@@H](n5cc(C)c(=O)[nH]c5=O)C[C@@H]4N=[N+]=[N-])O3)c(=O)[nH]c2=O)nn1 [Compound 1, 5′-O-[AZT-carbonyl]-5-[(4-decyl-1,2,3-triazol-1-yl)methyl]-2′-deoxyuridine] | – | – | 50 | 67 | 50 (≈ 67.3 µM) | both AZT and dU^R derivative | 390 | – | – | –
3 | CCCCCCCCCCc1cn(Cc2cn([C@H]3C[C@H](OC(=O)OC[C@H]4O[C@@H](n5cc(C)c(=O)[nH]c5=O)C[C@@H]4N=[N+]=[N-])[C@@H](CO)O3)c(=O)[nH]c2=O)nn1 [Compound 2, 3′-O-[AZT-carbonyl]-5-[(4-decyl-1,2,3-triazol-1-yl)methyl]-2′-deoxyuridine] | – | – | 20 | 27 | 10 (≈ 13.5 µM) | both AZT and dU^R derivative | 70 | – | – | –
4 | CCCCCCCCCCc1cn(Cc2cn([C@H]3C[C@H](OC(=O)OC[C@H]4O[C@@H](n5cc(C)c(=O)[nH]c5=O)C[C@@H]4N=[N+]=[N-])[C@@H](COC(=O)OC[C@H]4O[C@@H](n5cc(C)c(=O)[nH]c5=O)C[C@@H]4N=[N+]=[N-])O3)c(=O)[nH]c2=O)nn1 [Compound 3, 3′,5′-di-O-[AZT-carbonyl]-5-[(4-decyl-1,2,3-triazol-1-yl)methyl]-2′-deoxyuridine] | – | – | 10 | 9.7 | 20 (≈ 19.3 µM) | 1, 2, AZT, and dU^R | 80 | – | – | –
5 | CCCCOc1ccc(Nc2cn(C3C=CC(O)C3)c(=O)n(CCCn3c(=O)c(C)cn(C4CC(N=[N+]=[N-])C(CO)O4)c3=O)c2=O)cc1 (stereo not drawn) [Compound 5, [AZT]-N3-propyl-N3-[1-N-(4′-hydroxycyclopent-2′-enyl)-5-(p-butoxyphenylamino)]uracil] | – | – | 50 | 75 | > 50 | – | 12900 | stable | stable | –
6 | Cc1cn([C@H]2C[C@H](O)[C@@H](COP(=O)(O)O)O2)c(=O)[nH]c1=O [TMP, reference compound] | – | – | – | – | – | – | – | – | – | 20
7 | [AZT]-N3-propyl-N3-[1-N-[4′-(o,o-dimethylbenzyl)cyclopent-2′-enyl]uracil] [Compound 4] | – | – | – | – | – | – | 19800 | only slight debenzoylation at the carbocyclic fragment | stable | –
